Where “and” joins values, the source holds several entries; their conditions need not be identical. Identical values can stand only once. Inconclusive results and toxic doses are left out.
Test system: L1210 leukemia ip in BDF1 mice, survival T/C
Assay: NCI In Vivo Anticancer Drug Screen. Data for tumor model L1210 Leukemia (intraperitoneal) in B6D2F1 (BDF1) mice
Conditions: endpoint: mean survival time, higher = longer survival
How it was run: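 Transplanted-tumor mice were given test agent; controls received vehicle only. Survival readings from the two groups were divided (treated over control).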

[1] = dose: 100.0 mg/kg/injection, schedule: Q04DX003 (ip), vehicle: Klucel (hydroxypropylcellulose) (HPC)
[2] = dose: 200.0 mg/kg/injection, schedule: Q04DX003 (ip), vehicle: Klucel (hydroxypropylcellulose) (HPC)
[3] = dose: 100.0 mg/kg/injection, schedule: Q04DX003 (ip), vehicle: saline with Tween-80
[4] = dose: 200.0 mg/kg/injection, schedule: Q04DX003 (ip), vehicle: saline with Tween-80
[5] = dose: 100.0 mg/kg/injection, schedule: Q01DX001 (ip), vehicle: saline

`COC(=O)C1ON(C(=O)c2ccccc2)C(C)C2OC12` (centres undefined) was tested, and the T/C [1] was 103 % of control, the T/C [2] was 100 % of control and the T/C (dose: 400.0 mg/kg/injection, schedule: Q04DX003 (ip), vehicle: Klucel (hydroxypropylcellulose) (HPC)) was 96 % of control.
With `Cc1ccccc1C[P+](c1ccccc1)(c1ccccc1)c1ccccc1` the T/C (dose: 12.5 mg/kg/injection, schedule: Q01DX009 (ip), vehicle: acetone) was 101 % of control, the T/C (dose: 12.5 mg/kg/injection, schedule: Q04DX003 (ip), vehicle: saline) was 96 % of control and the T/C (dose: 25.0 mg/kg/injection, schedule: Q04DX003 (ip), vehicle: saline) was 102 % of control. The T/C (dose: 50.0 mg/kg/injection, schedule: Q04DX003 (ip), vehicle: saline) was 106 % of control.
With `O=C1CCC2=C(CCCCCCCCCC2)N1c1ccccc1` the T/C [3] was 105 % of control, the T/C [4] was 105 % of control and the T/C (dose: 400.0 mg/kg/injection, schedule: Q04DX003 (ip), vehicle: saline with Tween-80) was 94 % of control.
In the case of `Brc1csc2ncccc12`, the T/C (dose: 50.0 mg/kg/injection, schedule: Q01DX009 (ip), vehicle: Klucel (hydroxypropylcellulose) (HPC)) is reported as 102 % of control, the T/C (dose: 100.0 mg/kg/injection, schedule: Q01DX009 (ip), vehicle: Klucel (hydroxypropylcellulose) (HPC)) is reported as 101 % of control and the T/C [1] is reported as 97 % of control. The T/C (dose: 200.0 mg/kg/injection, schedule: Q01DX009 (ip), vehicle: Klucel (hydroxypropylcellulose) (HPC)) was 96 % of control and the T/C [2] was 100 % of control.
In the case of `Cc1cc(C(=O)c2ccccn2)c2cccc(C(F)(F)F)c2n1`, the T/C (dose: 50.0 mg/kg/injection, schedule: Q01DX009 (ip), vehicle: saline with Tween-80) is reported as 94 % of control, the T/C (dose: 100.0 mg/kg/injection, schedule: Q01DX009 (ip), vehicle: saline with Tween-80) is reported as 102 % of control and the T/C [3] is reported as 92 % of control. The T/C (dose: 200.0 mg/kg/injection, schedule: Q01DX009 (ip), vehicle: saline with Tween-80) was 100 % of control and the T/C [4] was 88 % of control.
`CC1CN1C(=O)Nc1cccc2c(NC(=O)N3CC3C)cccc12` (centres undefined) was tested, and the T/C (dose: 1.58 mg/kg/injection, schedule: Q01DX009 (ip), vehicle: Klucel (hydroxypropylcellulose) (HPC)) was 95 % of control, the T/C (dose: 2.38 mg/kg/injection, schedule: Q01DX009 (ip), vehicle: Klucel (hydroxypropylcellulose) (HPC)) was 101 % of control and the T/C (dose: 12.34 mg/kg/injection, schedule: Q01DX009 (ip), vehicle: Klucel (hydroxypropylcellulose) (HPC)) was 122 % of control. For the same compound, the T/C (dose: 12.5 mg/kg/injection, schedule: Q04DX003 (ip), vehicle: Klucel (hydroxypropylcellulose) (HPC)) was 117 % of control, the T/C (dose: 35.0 mg/kg/injection, schedule: Q04DX003 (ip), vehicle: Klucel (hydroxypropylcellulose) (HPC)) was 105 % of control and the T/C (dose: 50.0 mg/kg/injection, schedule: Q01DX001 (ip), vehicle: Klucel (hydroxypropylcellulose) (HPC)) was 118 % of control and 121 % of control. The T/C (dose: 50.0 mg/kg/injection, schedule: Q04DX003 (ip), vehicle: Klucel (hydroxypropylcellulose) (HPC)) was 157 % of control, the T/C (dose: 55.0 mg/kg/injection, schedule: Q04DX003 (ip), vehicle: Klucel (hydroxypropylcellulose) (HPC)) was 207 % of control and the T/C (dose: 75.0 mg/kg/injection, schedule: Q01DX001 (ip), vehicle: Klucel (hydroxypropylcellulose) (HPC)) was 119 % of control. For the same compound, the T/C (dose: 75.0 mg/kg/injection, schedule: Q04DX003 (ip), vehicle: Klucel (hydroxypropylcellulose) (HPC)) was 117 % of control, the T/C (dose: 85.0 mg/kg/injection, schedule: Q01DX009 (ip), vehicle: Klucel (hydroxypropylcellulose) (HPC)) was 89 % of control and the T/C (dose: 85.0 mg/kg/injection, schedule: Q04DX003 (ip), vehicle: Klucel (hydroxypropylcellulose) (HPC)) was 116 % of control. For the same compound, the T/C (dose: 170.0 mg/kg/injection, schedule: Q04DX003 (ip), vehicle: Klucel (hydroxypropylcellulose) (HPC)) was 118 % of control and the T/C (dose: 200.0 mg/kg/injection, schedule: Q01DX001 (ip), vehicle: Klucel (hydroxypropylcellulose) (HPC)) was 88 % of control.
In the case of `C=CCNC(=O)c1ccc[n+](CC(=O)NCCCCCCCCCC)c1`, the T/C (dose: 12.5 mg/kg/injection, schedule: Q04DX003 (ip), vehicle: saline with Tween-80) is reported as 95 % of control, the T/C (dose: 25.0 mg/kg/injection, schedule: Q04DX003 (ip), vehicle: saline with Tween-80) is reported as 101 % of control and the T/C (dose: 50.0 mg/kg/injection, schedule: Q04DX003 (ip), vehicle: saline with Tween-80) is reported as 94 % of control.
For `C1CCC2(CC1)CN2`, the T/C (dose: 25.0 mg/kg/injection, schedule: Q01DX009 (ip), vehicle: saline) was 103 % of control, the T/C (dose: 50.0 mg/kg/injection, schedule: Q01DX009 (ip), vehicle: saline) was 100 % of control and the T/C [5] was 97 % of control. The T/C (dose: 100.0 mg/kg/injection, schedule: Q01DX009 (ip), vehicle: saline) was 104 % of control.
In the case of `S=P(c1cccc2ccccc12)(c1cccc2ccccc12)c1cccc2ccccc12`, the T/C [5] is reported as 97 % of control, the T/C (dose: 200.0 mg/kg/injection, schedule: Q01DX001 (ip), vehicle: saline) is reported as 95 % of control and the T/C (dose: 400.0 mg/kg/injection, schedule: Q01DX001 (ip), vehicle: saline) is reported as 95 % of control.

— PubChem BioAssay AID248 (DTP/NCI, 2004)
